Assays:
[1] = test system: Ehrlich ascites; test: Ehrlich ascites in A2G mice, single intraperitoneal treatment; settings: for toxic side effects: animals followed up to one month
Experimental: Normal A2G mice were transplanted 24 hours prior to treatment with 1,000,000 Ehrlich ascites cells. Treatment procedures consisted of a single intraperitoneal injection of malachite green 4/mg/kg or brilliant green 2 mg/kg, with or without 0.7% levorotatory lactic acid.
A lot of 50 A2G mice with a bodyweight of approximately 25 g each were infected with Ehrlich ascites 48 hours prior to treatment. Treatment consisted of one intraperitoneal injection of 1.0 cm^3 brilliant green 1:20,000 solution (2 mg per kilogram) or 1.0 cm^3 of malachite green 1:10,000 (4 mg per kilogram), with 0.7% levorotatory lactic acid.

[2] = test system: Ehrlich ascites cells; test: Transmission electron microscopy of Ehrlich ascites cells from intraperitoneal liquid after treatment; format: cell-based, A2G mice
[3] = single intraperitoneal injection, malachite green 4/mg/kg or brilliant green 2 mg/kg, with or without 0.7% levorotatory lactic acid

SMILES	toxic side effects [1, 3]	resolution of Ehrlich ascites [1, 3]	effect of blocking malignancies ([1]; with lactic acid as specific vector and metabolite, in vitro and in vivo)	inactivation of malignant cells (electron microscope study of intraperitoneal liquid samples) ([2]; one i.p. injection of brilliant green 1:20,000 (2 mg per kilogram) or malachite green 1:10,000 (4 mg per kilogram) with 0.7% levorotatory lactic acid, samples at different times)	lipid droplet synthesis (TEM) ([2]; twenty-four hours after the treatment)	morphology (TEM) of ascites cells in peritoneal fluid ([2]; two weeks post treatment)
CCN(CC)c1ccc(C(=C2C=CC(=[N+](CC)CC)C=C2)c2ccccc2)cc1 [brilliant green]	no obvious toxic side effects were observed	–	–	–	–	–
CN(C)c1ccc(C(=C2C=CC(=[N+](C)C)C=C2)c2ccccc2)cc1 [malachite green]	no obvious toxic side effects were observed	ability to resolve Ehrlich ascites	irreversible effect of blocking malignancies both in vitro and in vivo	complete inactivation of the malignant cells	slowed down	characteristic cytostatic morphology consistent with interruption of cell cycling
